{
  "source": "patent US20090312280A1",
  "key": {"FGFR3": {"biological_target": "FGFR3 (Homo sapiens, UniProt P22607)", "experiment": "biochemical kinase screening assay"}, "TrkA": {"biological_target": "TrkA (Homo sapiens, UniProt P04629)", "experiment": "biochemical kinase screening assay"}, "K562 (Leukemia)": {"test_system": "K562 (Leukemia)", "experiment": "cell survival / MTT combination cytotoxicity", "assay_type": "cell-based, human", "conditions": "Homo sapiens"}, "EphB4": {"biological_target": "EphB4 (Homo sapiens, UniProt P54760)", "experiment": "biochemical kinase screening assay"}, "in vivo": {"experiment": "in vivo", "conditions": "mouse"}, "HUVEC cells": {"test_system": "HUVEC cells", "experiment": "cell survival assay in normal cells", "assay_type": "cell-based", "method": "(§1) The cytotoxic effect induced by the combination treatment in HUVEC cells is negligible compared with the cytotoxicity induced by the same treatment in tumor cells. […] A cell survival assay was also performed in HTC116 cells (human colon carcinoma) that were transiently transfected with a plasmid containing either p53 wild type or mutant."}, "Rsk2": {"biological_target": "Rsk2 (Homo sapiens, UniProt P51812)", "experiment": "biochemical kinase screening assay"}, "PKBa": {"biological_target": "PKBa (Homo sapiens, UniProt P31749)", "sequence (P31749 whole entry)": "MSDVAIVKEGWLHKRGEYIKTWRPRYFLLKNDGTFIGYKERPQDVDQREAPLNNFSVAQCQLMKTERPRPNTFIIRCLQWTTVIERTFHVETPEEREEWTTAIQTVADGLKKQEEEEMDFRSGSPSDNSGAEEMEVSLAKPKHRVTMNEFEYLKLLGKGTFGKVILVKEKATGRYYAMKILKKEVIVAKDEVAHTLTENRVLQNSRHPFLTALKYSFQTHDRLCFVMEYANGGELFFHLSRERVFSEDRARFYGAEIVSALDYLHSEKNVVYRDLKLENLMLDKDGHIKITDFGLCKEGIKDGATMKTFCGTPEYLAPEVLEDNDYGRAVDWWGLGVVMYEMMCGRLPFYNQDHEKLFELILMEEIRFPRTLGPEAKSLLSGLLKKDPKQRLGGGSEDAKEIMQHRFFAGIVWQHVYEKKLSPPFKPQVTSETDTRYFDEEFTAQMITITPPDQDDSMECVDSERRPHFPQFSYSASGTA", "experiment": "biochemical kinase screening assay"}, "Chk2 [1]": {"biological_target": "T1, Chk2 (Homo sapiens, UniProt O96017)", "T1 sequence (O96017 whole entry)": "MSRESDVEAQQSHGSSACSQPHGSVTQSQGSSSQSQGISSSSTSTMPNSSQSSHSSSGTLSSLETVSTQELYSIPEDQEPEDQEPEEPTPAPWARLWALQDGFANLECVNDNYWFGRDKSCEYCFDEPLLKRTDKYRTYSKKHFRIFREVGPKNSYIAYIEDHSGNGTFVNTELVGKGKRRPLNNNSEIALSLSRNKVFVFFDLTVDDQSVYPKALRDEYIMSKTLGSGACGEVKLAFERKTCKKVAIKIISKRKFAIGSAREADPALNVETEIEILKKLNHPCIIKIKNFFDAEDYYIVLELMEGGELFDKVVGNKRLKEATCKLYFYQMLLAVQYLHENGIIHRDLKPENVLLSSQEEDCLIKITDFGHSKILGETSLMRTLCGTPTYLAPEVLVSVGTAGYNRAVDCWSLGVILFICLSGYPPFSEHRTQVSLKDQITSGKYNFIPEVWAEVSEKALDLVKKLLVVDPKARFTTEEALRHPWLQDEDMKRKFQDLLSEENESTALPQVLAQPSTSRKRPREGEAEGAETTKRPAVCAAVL", "experiment": "cell-based or ex vivo assays of CHK2 activity"}, "Abl(m)": {"biological_target": "Abl(m) (Mus musculus, UniProt P00520)", "experiment": "biochemical kinase screening assay"}, "cSRC": {"biological_target": "cSRC (Homo sapiens, UniProt P12931)", "experiment": "biochemical kinase screening assay"}, "Bmx": {"biological_target": "Bmx (Homo sapiens, UniProt P51813)", "experiment": "biochemical kinase screening assay"}, "Blk(m)": {"biological_target": "Blk(m) (Mus musculus, UniProt P16277)", "sequence (P16277 whole entry)": "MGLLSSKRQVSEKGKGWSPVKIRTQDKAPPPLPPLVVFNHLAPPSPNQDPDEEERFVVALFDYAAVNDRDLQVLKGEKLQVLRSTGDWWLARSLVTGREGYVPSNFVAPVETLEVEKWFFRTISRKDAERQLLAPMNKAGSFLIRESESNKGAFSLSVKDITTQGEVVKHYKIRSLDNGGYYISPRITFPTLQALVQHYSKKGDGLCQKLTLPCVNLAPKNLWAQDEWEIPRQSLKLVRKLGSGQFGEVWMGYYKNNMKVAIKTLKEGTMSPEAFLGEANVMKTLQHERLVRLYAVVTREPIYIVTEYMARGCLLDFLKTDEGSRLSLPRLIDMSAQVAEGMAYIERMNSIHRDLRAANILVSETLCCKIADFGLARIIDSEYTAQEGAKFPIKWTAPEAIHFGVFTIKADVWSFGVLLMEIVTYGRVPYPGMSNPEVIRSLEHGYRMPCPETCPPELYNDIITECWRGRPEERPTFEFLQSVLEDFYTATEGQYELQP", "experiment": "biochemical kinase screening assay"}, "PRK2": {"biological_target": "PRK2 (Homo sapiens, UniProt Q16513)", "experiment": "biochemical kinase screening assay"}, "HT29 (Colon)": {"test_system": "HT29 (Colon)", "experiment": "cell survival / MTT combination cytotoxicity", "assay_type": "cell-based, human", "conditions": "Homo sapiens, HT-29"}, "PC-3 (Prostate)": {"test_system": "PC-3 (Prostate)", "experiment": "cell survival / MTT combination cytotoxicity", "assay_type": "cell-based, human", "conditions": "Homo sapiens"}, "Rsk1": {"biological_target": "Rsk1 (Homo sapiens, UniProt Q15418)", "sequence (Q15418 whole entry)": "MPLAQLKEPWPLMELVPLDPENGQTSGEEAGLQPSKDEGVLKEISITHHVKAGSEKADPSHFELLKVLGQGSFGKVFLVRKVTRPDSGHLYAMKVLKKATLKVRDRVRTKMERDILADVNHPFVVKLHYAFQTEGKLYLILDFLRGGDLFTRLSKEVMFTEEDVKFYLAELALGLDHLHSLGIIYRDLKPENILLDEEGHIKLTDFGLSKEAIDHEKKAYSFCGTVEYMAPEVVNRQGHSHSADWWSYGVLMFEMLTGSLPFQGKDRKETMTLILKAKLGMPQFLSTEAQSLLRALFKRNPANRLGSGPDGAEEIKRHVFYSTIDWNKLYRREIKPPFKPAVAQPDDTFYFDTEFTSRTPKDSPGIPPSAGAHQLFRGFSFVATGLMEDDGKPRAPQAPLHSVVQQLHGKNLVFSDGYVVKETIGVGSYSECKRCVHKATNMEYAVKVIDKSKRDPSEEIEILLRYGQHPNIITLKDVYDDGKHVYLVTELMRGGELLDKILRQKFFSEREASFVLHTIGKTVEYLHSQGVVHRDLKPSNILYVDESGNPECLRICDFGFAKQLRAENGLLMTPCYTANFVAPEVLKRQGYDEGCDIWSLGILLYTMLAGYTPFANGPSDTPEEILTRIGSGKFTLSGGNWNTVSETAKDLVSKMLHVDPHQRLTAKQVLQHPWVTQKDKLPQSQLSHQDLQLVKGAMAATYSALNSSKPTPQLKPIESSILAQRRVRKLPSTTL", "experiment": "biochemical kinase screening assay"}, "[2]": {"test_system": "p53-defective human cancer cell lines", "experiment": "cell survival / MTT assays, cell line not named", "assay_type": "cell-based"}, "[3]": {"experiment": "maximum tolerated dose by mean body weight loss", "conditions": "in vivo"}, "PAR-1Ba": {"biological_target": "PAR-1Ba (Homo sapiens, UniProt Q7KZI7)", "experiment": "biochemical kinase screening assay"}, "Rsk3": {"biological_target": "Rsk3 (Homo sapiens, UniProt Q15349)", "experiment": "biochemical"}, "Colo205 (Colon)": {"test_system": "Colo205 (Colon)", "experiment": "cell survival / MTT combination cytotoxicity", "assay_type": "cell-based, human", "conditions": "Homo sapiens, COLO 205"}, "[4]": {"test_system": "G2 checkpoint induced by camptothecin (Histone H3 phosphorylation on Ser10)", "experiment": "Histone H3 phosphorylation assay (G2 checkpoint abrogation)", "assay_type": "cell-based", "conditions": "read-out: EC50, abrogation of G2 checkpoint (increase in Histone H3 phosphorylation on Ser10)"}, "Fyn": {"biological_target": "Fyn (Homo sapiens, UniProt P06241)", "experiment": "biochemical kinase screening assay"}, "EGFR2": {"biological_target": "EGFR2 (Homo sapiens, UniProt P35968)", "sequence (P35968 20-1356)": "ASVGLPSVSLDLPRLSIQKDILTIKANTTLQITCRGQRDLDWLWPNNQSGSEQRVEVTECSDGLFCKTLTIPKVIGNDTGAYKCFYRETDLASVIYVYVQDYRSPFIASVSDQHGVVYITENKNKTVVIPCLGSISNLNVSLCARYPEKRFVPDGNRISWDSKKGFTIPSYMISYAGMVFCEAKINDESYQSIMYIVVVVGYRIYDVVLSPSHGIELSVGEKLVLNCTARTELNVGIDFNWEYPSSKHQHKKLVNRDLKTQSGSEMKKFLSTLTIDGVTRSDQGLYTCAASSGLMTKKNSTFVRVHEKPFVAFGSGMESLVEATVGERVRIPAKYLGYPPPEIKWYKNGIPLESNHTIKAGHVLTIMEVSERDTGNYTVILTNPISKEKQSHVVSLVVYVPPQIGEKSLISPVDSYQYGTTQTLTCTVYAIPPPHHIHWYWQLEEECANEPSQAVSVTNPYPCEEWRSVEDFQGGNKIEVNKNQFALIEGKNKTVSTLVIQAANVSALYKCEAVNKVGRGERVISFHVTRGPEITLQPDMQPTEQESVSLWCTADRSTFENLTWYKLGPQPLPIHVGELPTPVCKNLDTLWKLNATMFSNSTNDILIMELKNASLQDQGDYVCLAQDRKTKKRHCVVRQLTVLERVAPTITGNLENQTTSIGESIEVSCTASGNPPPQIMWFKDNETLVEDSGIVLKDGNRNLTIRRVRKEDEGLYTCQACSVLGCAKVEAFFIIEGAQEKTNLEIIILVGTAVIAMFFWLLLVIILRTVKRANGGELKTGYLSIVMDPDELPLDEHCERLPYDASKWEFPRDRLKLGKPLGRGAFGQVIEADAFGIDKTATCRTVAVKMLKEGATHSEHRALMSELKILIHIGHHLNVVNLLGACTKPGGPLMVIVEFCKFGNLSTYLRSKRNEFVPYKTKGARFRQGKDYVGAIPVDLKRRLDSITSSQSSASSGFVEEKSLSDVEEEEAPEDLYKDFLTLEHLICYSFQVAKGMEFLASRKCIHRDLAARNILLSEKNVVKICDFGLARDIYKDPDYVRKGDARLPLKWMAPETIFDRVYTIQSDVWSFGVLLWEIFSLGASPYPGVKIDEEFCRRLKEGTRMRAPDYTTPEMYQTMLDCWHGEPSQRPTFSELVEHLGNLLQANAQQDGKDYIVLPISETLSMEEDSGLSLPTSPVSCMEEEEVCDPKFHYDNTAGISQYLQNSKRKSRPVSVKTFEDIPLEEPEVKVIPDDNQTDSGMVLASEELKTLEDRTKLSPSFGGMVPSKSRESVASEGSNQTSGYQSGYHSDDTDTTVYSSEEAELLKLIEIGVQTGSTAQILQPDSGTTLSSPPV", "experiment": "biochemical kinase screening assay", "conditions": "read-out: IC50 (nM), given as Ki"}, "Fgr": {"biological_target": "Fgr (Homo sapiens, UniProt P09769)", "sequence (P09769 whole entry)": "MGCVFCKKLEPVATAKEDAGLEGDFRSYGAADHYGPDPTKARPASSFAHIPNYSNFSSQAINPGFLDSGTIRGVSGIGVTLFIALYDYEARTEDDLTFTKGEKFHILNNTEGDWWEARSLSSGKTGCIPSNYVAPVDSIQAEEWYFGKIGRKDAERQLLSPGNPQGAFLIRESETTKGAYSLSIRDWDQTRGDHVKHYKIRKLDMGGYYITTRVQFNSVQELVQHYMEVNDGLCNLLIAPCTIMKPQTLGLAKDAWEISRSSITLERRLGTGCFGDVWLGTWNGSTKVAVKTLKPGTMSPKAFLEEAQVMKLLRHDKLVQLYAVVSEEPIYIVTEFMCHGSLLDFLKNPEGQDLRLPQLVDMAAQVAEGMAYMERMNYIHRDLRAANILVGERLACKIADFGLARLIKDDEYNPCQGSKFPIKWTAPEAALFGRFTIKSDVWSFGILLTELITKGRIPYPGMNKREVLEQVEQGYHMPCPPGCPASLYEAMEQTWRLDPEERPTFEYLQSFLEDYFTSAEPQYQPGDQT", "experiment": "biochemical kinase screening assay"}, "Axl": {"biological_target": "Axl (Homo sapiens, UniProt P30530)", "sequence (P30530 26-894)": "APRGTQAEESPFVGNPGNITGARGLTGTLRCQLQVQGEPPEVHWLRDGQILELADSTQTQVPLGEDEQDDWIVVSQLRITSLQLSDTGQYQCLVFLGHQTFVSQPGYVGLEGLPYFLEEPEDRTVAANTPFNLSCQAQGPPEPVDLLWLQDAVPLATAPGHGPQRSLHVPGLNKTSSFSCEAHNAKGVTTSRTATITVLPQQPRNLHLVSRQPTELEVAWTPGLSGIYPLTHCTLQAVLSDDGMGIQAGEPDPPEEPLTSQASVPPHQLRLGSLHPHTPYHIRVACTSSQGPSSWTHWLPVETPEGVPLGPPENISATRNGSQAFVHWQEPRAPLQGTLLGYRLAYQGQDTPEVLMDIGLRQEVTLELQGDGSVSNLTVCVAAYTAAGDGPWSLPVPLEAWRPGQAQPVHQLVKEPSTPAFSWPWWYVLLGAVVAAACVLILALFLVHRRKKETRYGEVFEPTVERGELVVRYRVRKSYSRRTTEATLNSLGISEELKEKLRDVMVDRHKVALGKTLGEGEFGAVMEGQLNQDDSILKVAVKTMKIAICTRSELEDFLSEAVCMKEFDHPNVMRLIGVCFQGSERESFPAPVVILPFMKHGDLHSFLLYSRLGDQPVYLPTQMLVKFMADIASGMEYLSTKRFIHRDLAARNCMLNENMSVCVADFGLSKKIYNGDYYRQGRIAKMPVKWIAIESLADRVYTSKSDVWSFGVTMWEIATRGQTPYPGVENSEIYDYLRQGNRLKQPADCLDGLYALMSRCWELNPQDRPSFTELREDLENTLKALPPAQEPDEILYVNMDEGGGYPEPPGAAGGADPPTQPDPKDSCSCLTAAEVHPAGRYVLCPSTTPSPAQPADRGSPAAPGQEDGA", "experiment": "biochemical kinase screening assay"}, "Lck": {"biological_target": "Lck (Homo sapiens, UniProt P06239)", "experiment": "biochemical"}, "Chk2 [5]": {"biological_target": "T1, Chk2", "experiment": "biochemical kinase screening assay", "conditions": "read-out: IC50 (nM), given as Ki"}, "mutant p53 HCT116 cells": {"test_system": "mutant p53 HCT116 cells", "experiment": "cell survival assay, transiently transfected p53 mutant", "assay_type": "cell-based, human", "conditions": "Compound 1 + gemcitabine compared with gemcitabine alone", "method": "as §1"}},
  "data": [
    {"smiles": "Cn1cc(-c2[nH]c3cc(NC(=O)[C@H](N)C4CCCCC4)cc4c3c2C=NNC4=O)cn1", "note": "[Compound 1]", "values": [
      {"measurement": "IC50", "setting": "FGFR3", "value": 23, "unit": "nM"},
      {"measurement": "IC50", "setting": "TrkA", "value": 1270, "unit": "nM"},
      {"measurement": "IC50", "setting": "K562 (Leukemia)", "value": 420, "unit": "nM"},
      {"measurement": "IC50", "setting": "EphB4", "value": "> 10000", "unit": "nM"},
      {"measurement": "MTD", "setting": "in vivo", "value": 60, "unit": "mg/kg"},
      {"measurement": "increase in cell kill", "setting": "HUVEC cells; Compound 1 540 nM (12×EC50) + camptothecin compared with camptothecin alone", "value": 21.7},
      {"measurement": "increase in cell kill", "setting": "HUVEC cells; Compound 1 540 nM (12×EC50) + gemcitabine compared with gemcitabine alone", "value": 31.2, "unit": "%"},
      {"measurement": "IC50", "setting": "Rsk2", "value": 621, "unit": "nM"},
      {"measurement": "IC50", "setting": "PKBa", "value": 9200, "unit": "nM"},
      {"measurement": "modulation of CHK2 activity", "setting": "Chk2 [1]", "value": "no evidence that CHK2 activity is modulated"},
      {"measurement": "IC50", "setting": "Abl(m)", "value": 929, "unit": "nM"},
      {"measurement": "IC50", "setting": "cSRC", "value": 442, "unit": "nM"},
      {"measurement": "IC50", "setting": "Bmx", "value": 233, "unit": "nM"},
      {"measurement": "IC50", "setting": "Blk(m)", "value": 365, "unit": "nM"},
      {"measurement": "IC50", "setting": "PRK2", "value": 1980, "unit": "nM"},
      {"measurement": "IC50", "setting": "HT29 (Colon)", "value": 1800, "unit": "nM"},
      {"measurement": "IC50", "setting": "PC-3 (Prostate)", "value": 1600, "unit": "nM"},
      {"measurement": "IC50", "setting": "Rsk1", "value": 98, "unit": "nM"},
      {"measurement": "effect on cell viability", "setting": "[2]; Compound 1 alone compared with control (untreated) cells", "value": "no significant effect on cell viability"},
      {"measurement": "potentiation of gemcitabine cytotoxicity", "setting": "[2]; combination with gemcitabine compared with gemcitabine alone", "value": 89, "unit": "%"},
      {"measurement": "MTD", "setting": "[3]", "value": 40, "unit": "mg/kg"},
      {"measurement": "IC50", "setting": "PAR-1Ba", "value": 350, "unit": "nM"},
      {"measurement": "IC50", "setting": "Rsk3", "value": 171, "unit": "nM"},
      {"measurement": "IC50", "setting": "Colo205 (Colon)", "value": 1300, "unit": "nM"},
      {"measurement": "EC50", "setting": "[4]", "value": 45, "unit": "nM"},
      {"measurement": "IC50", "setting": "Fyn", "value": 953, "unit": "nM"},
      {"measurement": "Ki", "setting": "EGFR2", "value": 8, "unit": "nM"},
      {"measurement": "IC50", "setting": "Fgr", "value": 153, "unit": "nM"},
      {"measurement": "IC50", "setting": "Axl", "value": 117, "unit": "nM"},
      {"measurement": "IC50", "setting": "Lck", "value": 396, "unit": "nM"},
      {"measurement": "Ki", "setting": "Chk2 [5]", "value": 47, "unit": "nM"},
      {"measurement": "cell growth inhibition", "setting": "mutant p53 HCT116 cells", "value": 44, "unit": "%"}
    ]}
  ]
}
